Experimental findings from BindingDB's records for doi:10.1016/j.bmcl.2003.09.094 (Cv Therapeutics, 2003) are described below.

This assay deals with Adenosine receptor A1 (hamster). The assay can be described thus: Binding affinity for adenosine A1 receptor determined using hamster DDT1 cell membranes with [3H]CCPA as radioligand.
Broadly, the Ki is a dissociation constant, usually derived from enzyme kinetics or from competition with a known ligand. In turn, `CNC(=O)OC[C@H]1OC(n2cnc3c(NC4CCOC4)nc(Cl)nc32)[C@H](O)[C@@H]1O` (stereo partly drawn) [Methyl-carbamic acid (2R,3S,4R)-5-{2-chloro-6-[(R)-(tetrahydro-furan-3-yl)amino]-purin-9-yl}-3,4-dihydroxy-tetrahydro-furan-2-ylmethyl ester] gave a Ki of 96 nM. Then `O=C(NC1CCCCC1)OC[C@H]1OC(n2cnc3c(NC4CCOC4)ncnc32)[C@H](O)[C@@H]1O` (stereo partly drawn) [Cyclohexyl-carbamic acid (2R,3S,4R)-3,4-dihydroxy-5-{6-[(R)-(tetrahydro-furan-3-yl)amino]-purin-9-yl}-tetrahydro-furan-2-ylmethyl ester], with 584 nM. `O[C@@H]1[C@@H](COC(=S)NC2CCCC2)OC(n2cnc3c(NC4CCOC4)ncnc32)[C@@H]1O` (stereo partly drawn) [Cyclopentyl-thiocarbamic acid (2R,3S,4R)-3,4-dihydroxy-5-{6-[(R)-(tetrahydro-furan-3-yl)amino]-purin-9-yl}-tetrahydro-furan-2-ylmethyl ester]: the Ki was determined as 72 nM.

`CC(C)NC(=S)OC[C@H]1OC(n2cnc3c(NC4CCOC4)ncnc32)[C@H](O)[C@@H]1O` (stereo partly drawn) [Isopropyl-thiocarbamic acid (2R,3S,4R)-3,4-dihydroxy-5-{6-[(R)-(tetrahydro-furan-3-yl)amino]-purin-9-yl}-tetrahydro-furan-2-ylmethyl ester] gave a Ki of 36 nM. For `C=CCNC(=O)OC[C@H]1OC(n2cnc3c(NC4CCOC4)ncnc32)[C@H](O)[C@@H]1O` (stereo partly drawn) [Allyl-carbamic acid (2R,3S,4R)-3,4-dihydroxy-5-{6-[(R)-(tetrahydro-furan-3-yl)amino]-purin-9-yl}-tetrahydro-furan-2-ylmethyl ester] the value was 524 nM; for `O=C(NC1CCCC1)OC[C@H]1OC(n2cnc3c(NC4CCOC4)nc(Cl)nc32)[C@H](O)[C@@H]1O` (stereo partly drawn) [Cyclopentyl-carbamic acid (2R,3S,4R)-5-{2-chloro-6-[(R)-(tetrahydro-furan-3-yl)amino]-purin-9-yl}-3,4-dihydroxy-tetrahydro-furan-2-ylmethyl ester], 226 nM. Then `O=C(NCc1ccccc1)OC[C@H]1OC(n2cnc3c(NC4CCOC4)ncnc32)[C@H](O)[C@@H]1O` (stereo partly drawn) [Benzyl-carbamic acid (2R,3S,4R)-3,4-dihydroxy-5-{6-[(R)-(tetrahydro-furan-3-yl)amino]-purin-9-yl}-tetrahydro-furan-2-ylmethyl ester], with 1830 nM. `O=C(NC1CCC1)OC[C@H]1OC(n2cnc3c(NC4CCOC4)ncnc32)[C@H](O)[C@@H]1O` (stereo partly drawn) [Cyclobutyl-carbamic acid (2R,3S,4R)-3,4-dihydroxy-5-{6-[(R)-(tetrahydro-furan-3-yl)amino]-purin-9-yl}-tetrahydro-furan-2-ylmethyl ester] returned a Ki of 306 nM.

In turn, `O[C@@H]1[C@@H](COC(=S)NC2CC2)OC(n2cnc3c(NC4CCOC4)ncnc32)[C@@H]1O` (stereo partly drawn) [Cyclopropyl-thiocarbamic acid (2R,3S,4R)-3,4-dihydroxy-5-{6-[(R)-(tetrahydro-furan-3-yl)amino]-purin-9-yl}-tetrahydro-furan-2-ylmethyl ester] came in with a Ki of 157 nM. This Ki is about 1.9-fold lower than that of the compound before. The compound `CCNC(=O)OC[C@H]1OC(n2cnc3c(NC4CCOC4)ncnc32)[C@H](O)[C@@H]1O` (stereo partly drawn) [Ethyl-carbamic acid (2R,3S,4R)-3,4-dihydroxy-5-{6-[(R)-(tetrahydro-furan-3-yl)amino]-purin-9-yl}-tetrahydro-furan-2-ylmethyl ester] registered a Ki of 167 nM. Then `CNC(=S)OC[C@H]1OC(n2cnc3c(NC4CCOC4)nc(Cl)nc32)[C@H](O)[C@@H]1O` (stereo partly drawn) [Methyl-thiocarbamic acid (2R,3S,4R)-5-{2-chloro-6-[(R)-(tetrahydro-furan-3-yl)amino]-purin-9-yl}-3,4-dihydroxy-tetrahydro-furan-2-ylmethyl ester], with 71 nM; and `O[C@@H]1[C@@H](COC(=S)NC2CCC2)OC(n2cnc3c(NC4CCOC4)ncnc32)[C@@H]1O` (stereo partly drawn) [Cyclobutyl-thiocarbamic acid (2R,3S,4R)-3,4-dihydroxy-5-{6-[(R)-(tetrahydro-furan-3-yl)amino]-purin-9-yl}-tetrahydro-furan-2-ylmethyl ester], with 148 nM.

As for `CCCCNC(=S)OC[C@H]1OC(n2cnc3c(NC4CCOC4)ncnc32)[C@H](O)[C@@H]1O` (stereo partly drawn) [Butyl-thiocarbamic acid (2R,3S,4R)-3,4-dihydroxy-5-{6-[(R)-(tetrahydro-furan-3-yl)amino]-purin-9-yl}-tetrahydro-furan-2-ylmethyl ester], the affinity, expressed as Ki, was 157 nM. Then `CN(C)C(=S)OC[C@H]1OC(n2cnc3c(NC4CCOC4)ncnc32)[C@H](O)[C@@H]1O` (stereo partly drawn) [Dimethyl-thiocarbamic acid (2R,3S,4R)-3,4-dihydroxy-5-{6-[(R)-(tetrahydro-furan-3-yl)amino]-purin-9-yl}-tetrahydro-furan-2-ylmethyl ester], with 205 nM. Then `O=C(NC1CC1)OC[C@H]1OC(n2cnc3c(NC4CCOC4)ncnc32)[C@H](O)[C@@H]1O` (stereo partly drawn) [Cyclopropyl-carbamic acid (2R,3S,4R)-3,4-dihydroxy-5-{6-[(R)-(tetrahydro-furan-3-yl)amino]-purin-9-yl}-tetrahydro-furan-2-ylmethyl ester], with 209 nM; and `C=CCNC(=S)OC[C@H]1OC(n2cnc3c(NC4CCOC4)ncnc32)[C@H](O)[C@@H]1O` (stereo partly drawn) [Allyl-thiocarbamic acid (2R,3S,4R)-3,4-dihydroxy-5-{6-[(R)-(tetrahydro-furan-3-yl)amino]-purin-9-yl}-tetrahydro-furan-2-ylmethyl ester], with 35 nM.

With `O[C@@H]1[C@@H](COC(=S)NCc2ccccc2)OC(n2cnc3c(NC4CCOC4)ncnc32)[C@@H]1O` (stereo partly drawn) [Benzyl-thiocarbamic acid (2R,3S,4R)-3,4-dihydroxy-5-{6-[(R)-(tetrahydro-furan-3-yl)amino]-purin-9-yl}-tetrahydro-furan-2-ylmethyl ester], the Ki amounted to 12 nM.

`CCCNC(=S)OC[C@H]1OC(n2cnc3c(NC4CCOC4)ncnc32)[C@H](O)[C@@H]1O` (stereo partly drawn) [Propyl-thiocarbamic acid (2R,3S,4R)-3,4-dihydroxy-5-{6-[(R)-(tetrahydro-furan-3-yl)amino]-purin-9-yl}-tetrahydro-furan-2-ylmethyl ester] gave a Ki of 50 nM. For `CCCCNC(=O)OC[C@H]1OC(n2cnc3c(NC4CCOC4)ncnc32)[C@H](O)[C@@H]1O` (stereo partly drawn) [Butyl-carbamic acid (2R,3S,4R)-3,4-dihydroxy-5-{6-[(R)-(tetrahydro-furan-3-yl)amino]-purin-9-yl}-tetrahydro-furan-2-ylmethyl ester] the value was 1410 nM; for `CN(C)C(=O)OC[C@H]1OC(n2cnc3c(NC4CCOC4)ncnc32)[C@H](O)[C@@H]1O` (stereo partly drawn) [Dimethyl-carbamic acid (2R,3S,4R)-3,4-dihydroxy-5-{6-[(R)-(tetrahydro-furan-3-yl)amino]-purin-9-yl}-tetrahydro-furan-2-ylmethyl ester], 238 nM. `CCNC(=S)OC[C@H]1OC(n2cnc3c(NC4CCOC4)ncnc32)[C@H](O)[C@@H]1O` (stereo partly drawn) [Ethyl-thiocarbamic acid (2R,3S,4R)-3,4-dihydroxy-5-{6-[(R)-(tetrahydro-furan-3-yl)amino]-purin-9-yl}-tetrahydro-furan-2-ylmethyl ester] showed a Ki of 33 nM. Compound `O[C@@H]1[C@@H](COC(=S)NC2CCCCC2)OC(n2cnc3c(NC4CCOC4)ncnc32)[C@@H]1O` (stereo partly drawn) [Cyclohexyl-thiocarbamic acid (2R,3S,4R)-3,4-dihydroxy-5-{6-[(R)-(tetrahydro-furan-3-yl)amino]-purin-9-yl}-tetrahydro-furan-2-ylmethyl ester] gave a Ki of 253 nM. For `CNC(=S)OC[C@H]1OC(n2cnc3c(NC4CCOC4)ncnc32)[C@H](O)[C@@H]1O` (stereo partly drawn) [Methyl-thiocarbamic acid (2R,3S,4R)-3,4-dihydroxy-5-{6-[(R)-(tetrahydro-furan-3-yl)amino]-purin-9-yl}-tetrahydro-furan-2-ylmethyl ester] the value was 45 nM; for `CCCNC(=O)OC[C@H]1OC(n2cnc3c(NC4CCOC4)ncnc32)[C@H](O)[C@@H]1O` (stereo partly drawn) [Propyl-carbamic acid (2R,3S,4R)-3,4-dihydroxy-5-{6-[(R)-(tetrahydro-furan-3-yl)amino]-purin-9-yl}-tetrahydro-furan-2-ylmethyl ester], 235 nM; for `CC(C)NC(=O)OC[C@H]1OC(n2cnc3c(NC4CCOC4)ncnc32)[C@H](O)[C@@H]1O` (stereo partly drawn) [Isopropyl-carbamic acid (2R,3S,4R)-3,4-dihydroxy-5-{6-[(R)-(tetrahydro-furan-3-yl)amino]-purin-9-yl}-tetrahydro-furan-2-ylmethyl ester], 78 nM. For `CCNC(=S)OC[C@H]1OC(n2cnc3c(NC4CCOC4)nc(Cl)nc32)[C@H](O)[C@@H]1O` (stereo partly drawn) [Ethyl-thiocarbamic acid (2R,3S,4R)-5-{2-chloro-6-[(R)-(tetrahydro-furan-3-yl)amino]-purin-9-yl}-3,4-dihydroxy-tetrahydro-furan-2-ylmethyl ester] the value was 55 nM.
